This note sets out measurements from ChEMBL document CHEMBL1221208, “ATP-competitive inhibitors of the mitotic kinesin KSP that function via an allosteric mechanism” (Nat Chem Biol, 2007).

As usually defined, the inhibition is the relative decrease from the control value, in per cent. One may read the Ki as the dissociation constant of the complex between target and ligand, obtained from inhibition or displacement.

Activity calls are given as the source filed them. The rule behind the calls is not given here.

For experiment [1], the target named is T1, Kinesin-like protein KIF11 (Homo sapiens) (UniProt P52732).
T1 sequence (whole entry): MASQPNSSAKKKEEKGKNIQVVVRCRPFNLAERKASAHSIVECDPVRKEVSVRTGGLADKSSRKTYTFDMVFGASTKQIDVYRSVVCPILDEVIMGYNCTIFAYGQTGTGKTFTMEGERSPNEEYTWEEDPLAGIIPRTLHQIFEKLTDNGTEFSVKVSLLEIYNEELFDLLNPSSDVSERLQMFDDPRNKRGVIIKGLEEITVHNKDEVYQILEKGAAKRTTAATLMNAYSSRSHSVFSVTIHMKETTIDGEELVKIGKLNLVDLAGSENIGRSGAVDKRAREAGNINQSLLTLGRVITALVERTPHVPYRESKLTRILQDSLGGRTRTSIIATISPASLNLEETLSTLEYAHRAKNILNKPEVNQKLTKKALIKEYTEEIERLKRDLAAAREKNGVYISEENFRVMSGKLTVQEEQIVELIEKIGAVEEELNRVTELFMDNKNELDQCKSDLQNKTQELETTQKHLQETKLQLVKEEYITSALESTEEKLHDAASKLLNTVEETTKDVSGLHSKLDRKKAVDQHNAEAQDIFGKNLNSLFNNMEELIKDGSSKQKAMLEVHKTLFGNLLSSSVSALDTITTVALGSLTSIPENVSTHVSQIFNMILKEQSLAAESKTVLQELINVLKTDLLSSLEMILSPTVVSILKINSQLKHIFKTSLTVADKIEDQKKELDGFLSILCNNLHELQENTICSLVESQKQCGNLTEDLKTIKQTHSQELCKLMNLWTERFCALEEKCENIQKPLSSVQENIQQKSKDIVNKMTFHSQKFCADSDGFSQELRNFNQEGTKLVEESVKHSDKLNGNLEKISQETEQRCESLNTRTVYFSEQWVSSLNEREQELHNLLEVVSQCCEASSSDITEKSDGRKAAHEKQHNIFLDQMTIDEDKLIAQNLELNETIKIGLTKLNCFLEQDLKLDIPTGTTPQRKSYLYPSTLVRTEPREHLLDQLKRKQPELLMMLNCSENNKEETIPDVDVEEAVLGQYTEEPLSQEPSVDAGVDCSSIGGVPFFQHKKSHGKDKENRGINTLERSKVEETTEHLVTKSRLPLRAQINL
Nature of the experiment: Inhibition of Eg5 at 10 uM by puruvate kinsase-lactate dehydrogenase detection system.

Experiment [2] deals with T2, Kinesin-like protein KIF11 (Homo sapiens, UniProt P52732).
T2 sequence (P52732 whole entry): T1 sequence (whole entry)
The experiment can be described thus: Inhibition of human wild type Eg5 using varying ATP levels in presence of saturating levels of microtubule by Lineweaver-Burke plot.

In experiment [3] the target is T1, Kinesin-like protein KIF11 (Homo sapiens). The experiment can be described thus: Uncompetitive inhibition of human wild type Eg5 with respect to microtubule using varying ATP levels in presence of saturating levels of microtubule by Lineweaver-Burke plot.
Experiment [4] deals with Kinesin-like protein KIF11 (Homo sapiens, UniProt P52732, A133D). The experiment can be described thus: Inhibition of human KSP A133D mutant using varying ATP levels in presence of saturating levels of microtubule by Lineweaver-Burke plot.
For experiment [5], the species on record is Homo sapiens. Nature of the experiment: Uncompetitive inhibition of human KSP KHC-L5 mutant with respect to microtubule using varying ATP levels in presence of saturating levels of microtubule by Lineweaver-Burke plot.
Experiment [6] has as its target T3, Kinesin-like protein KIF2C (Homo sapiens) (UniProt Q99661).
T3 sequence (whole entry): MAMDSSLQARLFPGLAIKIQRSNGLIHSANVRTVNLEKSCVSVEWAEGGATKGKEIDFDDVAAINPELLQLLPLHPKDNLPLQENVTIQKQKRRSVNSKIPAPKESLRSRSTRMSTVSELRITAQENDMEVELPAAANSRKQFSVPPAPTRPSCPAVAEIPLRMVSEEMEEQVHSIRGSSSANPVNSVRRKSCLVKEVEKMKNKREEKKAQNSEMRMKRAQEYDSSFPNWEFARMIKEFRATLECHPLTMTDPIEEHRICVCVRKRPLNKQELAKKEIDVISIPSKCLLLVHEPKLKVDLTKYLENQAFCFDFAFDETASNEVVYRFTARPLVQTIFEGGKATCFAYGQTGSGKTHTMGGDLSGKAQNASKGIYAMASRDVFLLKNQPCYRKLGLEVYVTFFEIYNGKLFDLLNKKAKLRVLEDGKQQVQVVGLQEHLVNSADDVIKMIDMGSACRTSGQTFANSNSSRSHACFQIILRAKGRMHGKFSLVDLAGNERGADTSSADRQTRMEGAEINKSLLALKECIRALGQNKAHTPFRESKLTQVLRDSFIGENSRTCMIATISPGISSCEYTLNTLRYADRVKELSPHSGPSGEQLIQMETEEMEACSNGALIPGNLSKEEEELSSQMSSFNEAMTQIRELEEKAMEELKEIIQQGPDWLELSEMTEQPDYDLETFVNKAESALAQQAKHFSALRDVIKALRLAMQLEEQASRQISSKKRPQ
Nature of the experiment: Inhibition of MCAK at 10 uM by puruvate kinsase-lactate dehydrogenase detection system.

Chain of Kinesin-like protein KIF11 (Homo sapiens, UniProt P52732, A133D) (P52732 whole entry A133D): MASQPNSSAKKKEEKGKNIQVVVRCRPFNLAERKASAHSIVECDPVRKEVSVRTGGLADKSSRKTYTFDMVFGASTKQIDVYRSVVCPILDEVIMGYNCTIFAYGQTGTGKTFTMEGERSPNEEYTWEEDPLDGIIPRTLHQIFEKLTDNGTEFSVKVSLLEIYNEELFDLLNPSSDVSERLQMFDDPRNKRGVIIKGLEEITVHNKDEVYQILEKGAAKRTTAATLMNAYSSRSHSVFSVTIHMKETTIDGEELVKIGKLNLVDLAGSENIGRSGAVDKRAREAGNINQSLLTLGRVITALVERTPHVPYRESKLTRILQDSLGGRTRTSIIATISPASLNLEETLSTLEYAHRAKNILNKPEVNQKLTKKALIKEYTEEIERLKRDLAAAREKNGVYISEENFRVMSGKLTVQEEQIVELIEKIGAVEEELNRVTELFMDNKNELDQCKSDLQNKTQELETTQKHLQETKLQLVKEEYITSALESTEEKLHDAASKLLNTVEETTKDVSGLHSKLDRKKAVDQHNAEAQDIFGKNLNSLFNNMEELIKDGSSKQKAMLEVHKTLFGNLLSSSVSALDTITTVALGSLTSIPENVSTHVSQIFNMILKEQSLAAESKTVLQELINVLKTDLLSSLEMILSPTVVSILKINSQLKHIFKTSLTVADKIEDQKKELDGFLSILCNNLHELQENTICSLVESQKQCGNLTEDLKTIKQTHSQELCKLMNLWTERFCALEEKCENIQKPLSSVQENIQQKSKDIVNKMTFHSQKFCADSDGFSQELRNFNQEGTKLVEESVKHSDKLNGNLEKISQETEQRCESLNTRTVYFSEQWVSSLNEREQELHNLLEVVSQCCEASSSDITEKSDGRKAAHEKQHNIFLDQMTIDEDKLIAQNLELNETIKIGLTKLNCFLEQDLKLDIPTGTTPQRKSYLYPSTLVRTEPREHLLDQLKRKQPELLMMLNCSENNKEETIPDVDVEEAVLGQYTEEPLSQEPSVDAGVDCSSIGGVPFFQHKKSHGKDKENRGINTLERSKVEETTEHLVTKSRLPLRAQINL

On to `O=C1CCc2cc(-c3ccc(C(F)(F)F)cc3)ccc2N1`, for which the values for the inhibition in experiment [1] and in experiment [6] were 99.3% and 8.4%, respectively. Further, the Ki was found to be 1.8 nM in experiment [2] and 1.4 nM in experiment [4]. Also, the inhibition entry in experiment [3] and in experiment [5] was “Active” each time.
As for `Cc1ccc(C(=O)N(CCCN)[C@@H](c2nc3cc(Cl)ccc3c(=O)n2Cc2ccccc2)C(C)C)cc1`, the inhibition in experiment [1] turned out to be 99.6%; in experiment [6], 8.2%.
Regarding `NC(=O)Nc1ccc(-c2ccc(C(F)(F)F)cc2)cc1F`, the inhibition in experiment [1] was determined as 99.4%; in experiment [6] it was 6.9%. For the same compound, the Ki came out at 8.8 nM in experiment [2] and 6.8 nM in experiment [4]. For the same compound, the inhibition result in experiment [3] and in experiment [5] was “Active” in each case.
